The source of these data is paper PMC10498496, “Design and Synthesis of Poly(2,2′-Bipyridyl) Ligands for Induction of Cell Death in Cancer Cells: Control of Anticancer Activity by Complexation/Decomplexation with Biorelevant Metal Cations” (Inorganic Chemistry, 2023).

Molecules are shown by their SMILES. Like-named read-outs stand apart in the source and are kept apart here. Numbered stars: 1 amine (or outer) side, 2 acyl side, 3 side chain; on linkers, the order of the positions; unused ones are H or OH. Bridge positions count the residues as written; N and C are the ends. Square brackets hold non-standard residues; d marks the D form. Peptide text beside a SMILES is read from it. I, II: the chains in the order shown. Actinocin(9to1) = Cc1c2oc3c(C)ccc(C(=O)[*:1])c3nc-2c(C(=O)[*:2])c(N)c1=O; NMeV = CN[C@H](C(=O)O)C(C)C; Sar = CNCC(=O)O

For one data set, the system named is U937 cells. The data set can be described thus: MTT assay, cytotoxicity against U937 cells. It counts as cell-based, human. The settings on record: Homo sapiens, read-out: EC50 against U937. As to the method:
(§1) Second, we conducted the quantitative evaluation of the cytotoxicity of 1, 2, and 3 against various cancer cell lines by an MTT (3-(4,5-dimethylthiazol-2-yl)-2,5-diphenyltetrazolium bromide) assay. Jurkat, MOLT-4 (these two cell lines are human T-lymphocyte leukemia cells), and U937 (human lymphoma) cells (1.5 × 10^4 cells/well) were incubated in RPMI 1640 medium containing 10% FBS (fetal bovine serum) containing 1, 2, and 3 (0–25 μM) at 37 °C for 24 h, and then treated with the MTT reagent. A549 (human alveolar adenocarcinoma) and IMR-90 (normal human fetal lung fibroblast as model of normal cells) cells (1.5 × 10^4 cells/well) were incubated in DMEM (low glucose) with 10% FBS containing 1, 2, and 3 (0–25 μM), HeLa S3 (human epithelial carcinoma cells) cells (1.5 × 10^4 cells/well) were incubated in MEM with 10% FBS containing these ligands (0–25 μM) for 24 h at 37 °C and then treated with the MTT reagent.
(§2) • (a) Cytotoxic study. Jurkat cells, MOLT-4 cells, and U937 cells (1.5 × 10^5 cells/mL per one well) were incubated in 10% FBS RPMI 1640 medium containing 1 (0–25 μM), 2 (0–25 μM) , 3, cisplatin (0–100 μM), and actinomycin D (0–10 μM) under 5% CO2 at 37 °C for 24 h on 96 well plates (Watson), 0.5% MTT (3-(4,5-dimethyl-2-thiazolyl)-2,5-diphenyl-2H-tetrazolium bromide) reagent in PBS (10 μL) was then added to the cells. After incubation at 37 °C for 4 h, a formazan lysis solution (10% SDS in 0.01 N HCl) (100 μL) was added and the resulting solution was incubated overnight under the same conditions, followed by the measurement of absorbance at 570 nm with a microplate reader (BIO-RAD).

Data set [1] relates to MOLT-4 cells. In words: MTT assay, cytotoxicity against MOLT-4 cells. It counts as cell-based, human. The following applies: Homo sapiens, read-out: EC50 against MOLT-4. Here is the method: as §1, §2
On the technique in general: Tetrazolium dyes change colour on reduction, which living cells bring about.

In a further data set the test system is A549 cells. In words: MTT assay, cytotoxicity against A549 cells. It counts as cell-based, human. The following applies: Homo sapiens, A549, 37 °C, treated for 24 h. Here is the method:
as §1
(§3) HeLa S3 cells and A549 cells in MEM and DMEM medium with 10% FBS (1.5 × 10^5 cells/mL per one well) were seeded in to 96 well plates and incubated for 24 h, MTT assay of poly(bpy) ligands (0–25 μM), cisplatin (0–100 μM), and actinomycin D (0–10 μM) was performed according to the same procedure described above.

A further data set relates to IMR-90 cells. In words: MTT assay, cytotoxicity against IMR-90 cells (model of normal cells). It counts as cell-based, human. The following applies: Homo sapiens, read-out: EC50 against IMR-90. Here is the method:
as §1
(§4) IMR-90 cells in DMEM medium with 10% FBS (1.5 × 10^5 cells/mL) were seeded in to 96 well plates and incubated for 24 h at 37 °C, MTT assays with poly(bpy) ligands and their metal complexes (0–100 μM), cisplatin (0–100 μM), and actinomycin D (0–10 μM) were performed following the same procedure described above. These experiments were carried out at least three times. • (b) MTT assay in the presence of a caspase inhibitor. Jurkat cells were pre-treated with Z-VAD-fmk (15 μM) for 3 h, a general caspases inhibitor, followed by the treatment with 1 (1 μM), BABTA-AM (12.5 μM) and cisplatin (50 μM), respectively, for 24 h, and then MTT assay was carried out as described above. • (c) For evaluation of the effect of metal ions on the cytotoxicity of 1, 2, BAPTA, and BAPTA-AM, these ligands were incubated with metal ions such as Cu(NO3)2, Zn(NO3)2, FeSO4, Co(NO3)2, and NiSO4 for 1 h, respectively, and added to Jurkat cells. The whole mixtures were incubated for 12, 24, and 48 h at [ligand] = 0.78–25 μM and at [M^2+] = 1.71–37.5 μM ([ligand]/[M^2+] = 1:1.5). The MTT assays were conducted as described above.

Data set [2] has as its system Jurkat cells. The data set can be described thus: MTT assay, cytotoxicity against Jurkat cells. Type of data set: cell-based, human. The settings on record: Homo sapiens, Jurkat. Here is the method:
as §1, §2

The next data set deals with HeLa S3 cells. In words: MTT assay, cytotoxicity against HeLa S3 cells. Type of data set: cell-based, human. The settings on record: Homo sapiens. Here is the method:
Second, we conducted the quantitative evaluation of the cytotoxicity of 1, 2, and 3 against various cancer cell lines by an MTT (3-(4,5-dimethylthiazol-2-yl)-2,5-diphenyltetrazolium bromide) assay. Jurkat, MOLT-4 (these two cell lines are human T-lymphocyte leukemia cells), and U937 (human lymphoma) cells (1.5 × 10^4 cells/well) were incubated in RPMI 1640 medium containing 10% FBS (fetal bovine serum) containing 1, 2, and 3 (0–25 μM) at 37 °C for 24 h, and then treated with the MTT reagent. […]
as §3

Data set [3] deals with MOLT-4 cells. Set-up: method as in earlier work. The settings on record: ref 52 (Morita et al., Oncotarget 2013); read-out: EC50, cytotoxicity against MOLT-4 cells; cited from earlier work.
In data set [4] the test system is Jurkat cells. In words: MTT assay of Jurkat cells, effect of metal ions and incubation time on cytotoxicity of ligands. It counts as cell-based, human. Here is the method: Next, we examined the effect of complexation of 1, 2, BAPTA, and BAPTA-AM with metal ions such as Cu(NO3)2, Zn(NO3)2, FeSO4, Co(NO3)2, and NiSO4 on their cytotoxicity against Jurkat cells. Mixture of ligands and metal ions were incubated for 1 h at 37 °C, and added to Jurkat cells for incubation for 12, 24, and 48 h at [ligand] = 0.78–25 μM and [M^2+] = 1.71–37.5 μM ([ligand]: [M^2+] = 1:1.5). After that, MTT assays were carried out, as shown in Figure S3 of the Supporting Information.
as §4

For data set [5], the system named is Jurkat cells. The data set can be described thus: MTT assay in the presence of the caspase inhibitor Z-VAD-fmk. It counts as cell-based, human. The following applies: Z-VAD-fmk 15 μM 3 h, then compound 12.5 μM for 24 h. The text has this: We, therefore, selected Jurkat cells to study the cell death mechanism in detail, in this work. Programmed cell death (PCD) is generally classified into several types such as apoptosis, necroptosis, paraptosis, autophagic cell death, and so on.[30]−[33] We hypothesized that 1 and 2 function as inducers of apoptosis, which is a type of PCD in cancer cells, based on the morphological change of Jurkat cells observed in Figure 1 and mechanism of chelation therapy proposed in the previous studies.[11]−[19] It is known that the caspases family are cysteine proteases that play important roles in apoptosis and necroptosis.[38] Therefore, the effect of Z-VAD-fmk, which is known as one of general caspase inhibitors, on the cell death induced by 1 and cisplatin was examined.
Figure 3 Effect of Z-VAD-fmk on the cell death in Jurkat cells induced by 1. Jurkat cells were incubated in RPMI in the presence of Z-VAD-fmk (15 μM) for 3 h and then treated with (a) 1 (1 μM) and (b) cisplatin (50 μM) for 24 h. Asterisks indicate significant difference with *(P ≤ 0.05).
To investigate the mechanism responsible for the BAPTA-AM-induced cell death in Jurkat cells, Jurkat cells were incubated with Z-VAD-fmk (15 μM) for 3 h, and then cells were treated with BAPTA-AM (12.5 μM) for 24 h followed by an MTT assay.
IMR-90 cells in DMEM medium with 10% FBS (1.5 × 10^5 cells/mL) were seeded in to 96 well plates and incubated for 24 h at 37 °C, MTT assays with poly(bpy) ligands and their metal complexes (0–100 μM), cisplatin (0–100 μM), and actinomycin D (0–10 μM) were performed following the same procedure described above. These experiments were carried out at least three times. • (b) MTT assay in the presence of a caspase inhibitor. […]

Setting [6] is: U-937, MTT, 37 °C, treated for 24 h.
The mark [7] stands for this setting: MOLT-4, MTT, 37 °C, treated for 24 h.
Where [8] appears, read: IMR-90, MTT, 37 °C, treated for 24 h.
Setting [9] is: MTT, 37 °C, treated for 24 h, read-out: EC50 against Jurkat (converted).
Where [10] appears, read: HeLa S3, MTT, 37 °C, treated for 24 h, read-out: EC50 against HeLa S3 (converted).
Setting [11] is: Homo sapiens, Jurkat, no metal, incubation 48 h (Figure 9, S4), read-out: EC50 against Jurkat cells, metal-free ligand.

Consider `c1ccc(COc2ccc(-c3ccccn3)nc2)cc1` [compound 3, 5-(Benzyloxy)-2,2′-bipyridine], for which the melting point (commonly the temperature of the solid-liquid transition) is 85 to 87 °C. Moreover, in the data set on U937 cells (setting [6]), the EC50 (as a rule, the concentration giving half of the maximal effect) came to 5.6 ± 0.77 µM. Also, the EC50 in the data set on MOLT-4 cells [1] (setting [7]) was found to be 8.7 ± 0.89 µM. Moreover, the EC50 with A549 cells is 11 ± 0.55 µM. The EC50 with IMR-90 cells (setting [8]) stood at 75 ± 0.1 µM. For the same compound, the EC50 with Jurkat cells [2] (setting [9]) was 13 ± 0.34 µM. For the same compound, in the data set with HeLa S3 cells (setting [10]), the EC50 was 15 ± 0.37 µM.

As for `c1ccc(CN(CCN(Cc2ccccn2)Cc2ccccn2)Cc2ccccn2)nc1` [TPEN, N,N,N′,N′-tetra(2-pyrydylmethyl)ethylene diamine], the EC50 with MOLT-4 cells [3] was roughly 8 µM.

On to `Cc1c2oc3c(C)ccc(C(=O)N[C@@H]4C(=O)N[C@H](C(C)C)C(=O)N5CCC[C@H]5C(=O)N(C)CC(=O)N(C)[C@@H](C(C)C)C(=O)O[C@@H]4C)c3nc-2c(C(=O)N[C@@H]2C(=O)N[C@H](C(C)C)C(=O)N3CCC[C@H]3C(=O)N(C)CC(=O)N(C)[C@@H](C(C)C)C(=O)O[C@@H]2C)c(N)c1=O` [actinomycin D, reference compound] (I: T[dV]P[Sar][NMeV] / II: T[dV]P[Sar][NMeV]; ester I:1-I:C, II:1-II:C; linker I:N-II:N via Actinocin(9to1)), for which the EC50 with U937 cells (U-937, 24 h) was 0.051 µM; in the data set on MOLT-4 cells [1] (MOLT-4, 24 h), 0.003 µM; in the data set on IMR-90 cells (IMR-90, 24 h), 53 ± 2.6 µM; in the data set with Jurkat cells [2] (24 h, read-out: EC50 against Jurkat), 0.005 µM; with HeLa S3 cells (HeLa S3, 24 h, read-out: EC50 against HeLa S3), greater than 10 µM.

Regarding `CC(=O)OCOC(=O)CN(CC(=O)OCOC(C)=O)c1ccccc1OCCOc1ccccc1N(CC(=O)OCOC(C)=O)CC(=O)OCOC(C)=O` [BAPTA-AM, reference compound], the EC50 with U937 cells (setting [6]) is 7.1 ± 0.4 µM; in the data set on Jurkat cells [4] (Homo sapiens, Jurkat, no metal, incubation 24 h (Figure S4), read-out: EC50 against Jurkat cells, ligand alone), 8.6 µM; in the data set with Jurkat cells [4] (setting [11]), 7.9 µM; in the data set with MOLT-4 cells [1] (setting [7]) it was 13.2 ± 0.2 µM; in the data set with A549 cells, greater than 50 µM; in the data set on IMR-90 cells (setting [8]), greater than 50 µM. Besides, the values for the EC50 in the data set on Jurkat cells [2] (setting [9]) and in the data set with HeLa S3 cells (setting [10]) were 8.6 ± 0.3 µM and greater than 50 µM, respectively. Also, the “cell viability of Jurkat cells after preincubation with Z-VAD-fmk” value in the data set with Jurkat cells [5] is listed as “considerably restored”.

Consider `O=[N+]([O-])[O-].O=[N+]([O-])[O-].[Co+2]` [Co^2+, Co(NO3)2], for which, in the data set with Jurkat cells [4] (no ligand, incubation 48 h (Figure 9a), read-out: EC50 of ligand-free metal ion against Jurkat cells), the EC50 is 13 µM.

The compound `c1ccc(-c2ccc(OCc3cccc(COc4ccc(-c5ccccn5)nc4)c3)cn2)nc1` [compound 2, 1,3-Bis(([2,2′-Bipyridin]-5-yloxy)methyl)benzene] gave a melting point of 135 to 136 °C. In addition, the EC50 with U937 cells (setting [6]) came out at 0.59 ± 0.33 µM. The EC50 in the data set on Jurkat cells [4] (Homo sapiens, Jurkat, no metal, incubation 12 h (Figure 9), read-out: EC50 against Jurkat cells, metal-free ligand) was roughly 2 µM. The EC50 in the data set on Jurkat cells [4] (setting [11]) was roughly 0.1 µM. Also, the EC50 in the data set on MOLT-4 cells [1] (setting [7]) was 0.64 ± 0.55 µM. Also, a half-maximal response in the data set on A549 cells (EC50) required 9.5 ± 1.2 µM. For the same compound, the EC50 in the data set with IMR-90 cells (setting [8]) was greater than 100 µM. Moreover, the EC50 with Jurkat cells [2] (setting [9]) is 0.77 ± 0.56 µM. Moreover, the EC50 with HeLa S3 cells (setting [10]) is 15 ± 1.34 µM.
